Measurements taken from patent US20250171434A1, “SEC61 INHIBITORS AND USE THEREOF” (KEZAR LIFE SCIENCES, INC., priority 2022, published 2025).
Like-named read-outs stand apart in the source and are kept apart here.

Experiments:
[1] = Liver Microsome Stability Assay, monkey; assay type: in vitro ADME; details: monkey liver microsomes 1.0 mg/mL, 1.0 uM compound, 37° C., 1 mM NADPH
How it was run: (§1)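 Each species' liver microsomes at 1.0 mg/mL received 1.0 uM compound in 0.1 M potassium phosphate with 0.4% DMSO. Reactions proceeded at 37° C in the presence or absence of 1 mM NADPH. Quenching followed at 0 and 30 minutes.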

[2] = system: TNFα-FL/Gaussia Luciferase; test: Dox Induced TNFα-FL-Gluc Assay; assay type: cell-based
Description: (§2) Flp-In 293 T-REx™ cells were transfected with pcDNA™5/FRT/TO plasmid inserted with cDNA encoding Gaussia Luciferase fused to the 3′ end of cDNA encoding full length TNFα (amino acids 1-233). Transfected cells were selected for resistance to the selectable markers Hygromycin and Blasticidin to create a stable cell line that contained the TNFα-FL/Gaussia Luciferase cDNA insert whose expression was regulated under the T-REx™ system. The day before assay, cells were trypsinized and plated in 384-well tissue culture plates. The next day, compound dilutions in DMSO/media containing doxycycline were added to the wells and incubated at 37° C., 5% CO2.
(§3) For chemical structures that include one or more stereoisomers, but are illustrated without indicating stereochemistry, the assay data refers to a mixture of stereoisomers.

[3] = Liver Microsome Stability Assay, mouse; assay type: in vitro ADME; details: mouse liver microsomes 1.0 mg/mL, 1.0 uM compound, 37° C., 1 mM NADPH
How it was run: as §1

[4] = system: IL-2-FL/Gaussia Luciferase; test: Dox Inducible IL2-FL-Gluc Assay; assay type: cell-based
How it was run: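 A hygromycin- and blasticidin-resistant 293 T-REx clone carrying inducible IL-2–Gaussia luciferase (full-length IL-2, residues 1-153) serves as the cell system. After overnight plating, the cells get test compounds together with doxycycline in DMSO/media and are incubated at 37° C, 5% CO2.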

[5] = Liver Microsome Stability Assay, rat; assay type: in vitro ADME; details: rat liver microsomes 1.0 mg/mL, 1.0 uM compound, 37° C., 1 mM NADPH
How it was run: as §1

[6] = system: multiple myeloma cell line U266B1; test: U266 Cell Viability Assay; assay type: cell-based; details: Homo sapiens
How it was run: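 After growth in serum-supplemented RPMI 1640, cells received serially diluted compound in DMSO/media and were kept 48 hours before a CellTiter-Glo luminescence readout.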

[7] = system: PD1-ss+10aa/Gaussia Luciferase; test: Dox-Induced PD1-ss-Gluc Assay; assay type: cell-based
How it was run: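 Gaussia luciferase fused downstream of the PD1 signal peptide plus 10 residues was expressed on doxycycline induction in stably transfected Flp-In 293 T-REx cells. Compounds were added with doxycycline and incubated at 37 °C, 5% CO2.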

[8] = system: multiple myeloma cell line NCI-H929; test: H929 Cell Viability Assay; assay type: cell-based, human; details: Homo sapiens
How it was run: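 A 48-hour compound treatment of cells in 10% FBS RPMI medium was followed by luciferase-based viability quantification.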

[9] = system: HER3-ss+4aa/Gaussia Luciferase; test: Dox-Inducible Her3-ss-Gluc Assay; assay type: cell-based
Description: as §2, with “HER3 signal sequence plus 4 amino” for “full length TNFα (amino”, “(N-[…]-C) (SEQ ID NO: 2).” for “1-233).”, “HER3-ss+4aa/Gaussia” for “TNFα-FL/Gaussia”
as §3

[10] = Liver Microsome Stability Assay, human; assay type: in vitro ADME; details: human liver microsomes 1.0 mg/mL, 1.0 uM compound, 37° C., 1 mM NADPH
How it was run: as §1

[11] = Flp-In 293 T-REx cells, 24 hours with doxycycline; Table 3; read-out: 24 hr Dox Inducible TNFaFLGluc 293FRT/TO: Mean IC50
[12] = ratio of IC50s TNF/PD1; Table 3
[13] = Flp-In 293 T-REx cells, 24 hours with doxycycline; Table 3; read-out: 24 hr Dox Inducible IL2FLGluc 293FRT/TO: Mean IC50
[14] = ratio of IC50s IL2/PD1; Table 3
[15] = U-266, U266B1 cells, 48 hours, Celltiter-Glo, read-out: 48 hr U266 Viability Celltiter-Glo: Mean EC50
[16] = Flp-In 293 T-REx cells, 24 hours with doxycycline; Table 3; read-out: 24 hr Dox Inducible PD1ssGluc 293FRT/TO: Mean IC50
[17] = NCI-H929 cells, 48 hours, Celltiter-Glo, read-out: 48 hr H929 Viability Celltiter-Glo: Mean EC50
[18] = Flp-In 293 T-REx cells, 24 hours with doxycycline; Table 3; read-out: 24 hr Dox Inducible Her3(ss + 4)Gluc 293FRT/TO: Mean IC50

Row | Liver Microsome Stability (Multiple Species): Monkey - % Remaining after 30 min w/ NADPH (%) [1] | IC50 [2, 11] | Liver Microsome Stability (Multiple Species): Mouse - % Remaining after 30 min w/ NADPH (%) [3] | IC50 [4, 13] | Liver Microsome Stability (Multiple Species): Rat - % Remaining after 30 min w/ NADPH (%) [5] | EC50 [6, 15] | IC50 [7, 16] | EC50 [8, 17] | IC50 [9, 18] | Liver Microsome Stability (Multiple Species): Human - % Remaining after 30 min w/ NADPH (%) [10] | Compound | 24 hr Dox Inducible TNFaFLGluc 293FRT/TO: TNF/PD1 [2, 12] | 24 hr Dox Inducible IL2FLGluc 293FRT/TO: IL2/PD1 [4, 14] | IC50 ([2]; read-out: 24 hr Dox Inducible TNFaFLGluc 293FRT/TO: Mean IC50; Flp-In 293 T-REx cells, 24 hours with doxycycline; Table 3) | IC50 ([4]; read-out: 24 hr Dox Inducible IL2FLGluc 293FRT/TO: Mean IC50; Flp-In 293 T-REx cells, 24 hours with doxycycline; Table 3) | EC50 ([6]; U-266, 48 h, read-out: 48 hr U266 Viability Celltiter-Glo: Mean EC50 (nM)) | IC50 ([7]; read-out: 24 hr Dox Inducible PD1ssGluc 293FRT/TO: Mean IC50; Flp-In 293 T-REx cells, 24 hours with doxycycline; Table 3) | EC50 ([8]; NCI-H929, 48 h, read-out: 48 hr H929 Viability Celltiter-Glo: Mean EC50 (nM)) | IC50 ([9]; read-out: 24 hr Dox Inducible Her3(ss + 4)Gluc 293FRT/TO: Mean IC50; Flp-In 293 T-REx cells, 24 hours with doxycycline; Table 3)
1 | <1% | 3.82 µM | 31% | 737 nM | 10% | 19700 nM | 117 nM | 7130 nM | 332 nM | 59% | O=C(Nc1nc(/C=C/C2CCCC2)cs1)c1cccn1Cc1ccnc(F)c1 [Compound B26, (E)-N-(4-(2-cyclopentylvinyl)thiazol-2-yl)-1-((2-fluoropyridin-4-yl)methyl)-1H-pyrrole-2-carboxamide] | 33 | 6 | – | – | – | – | – | –
2 | <1% | 3.94 µM | 20% | 1200 nM | 20% | > 25000 nM | 17 nM | > 25000 nM | 553 nM | 4% | O=C(Nc1nc(/C=C/c2ccc(C(F)(F)F)cn2)cs1)c1cccn1Cc1ccnc(F)c1 [Compound B5, (E)-1-((2-fluoropyridin-4-yl)methyl)-N-(4-(2-(5-(trifluoromethyl)pyridin-2-yl)vinyl)thiazol-2-yl)-1H-pyrrole-2-carboxamide] | 230 | 70 | – | – | – | – | – | –
3 | 6% | 3.98 µM | 23% | 499 nM | 13% | > 25000 nM | 30 nM | 8090 nM | 184 nM | 4% | C/C(=C\c1ccc(C)c(F)n1)c1csc(NC(=O)c2cccn2Cc2ccnc(F)c2)n1 [Compound B7, (E)-N-(4-(1-(6-fluoro-5-methylpyridin-2-yl)prop-1-en-2-yl)thiazol-2-yl)-1-((2-fluoropyridin-4-yl)methyl)-1H-pyrrole-2-carboxamide] | 134 | 17 | – | – | – | – | – | –
4 | 5% | 8.54 µM | 78% | 1530 nM | 17% | > 25000 nM | 11 nM | 10200 nM | 1150 nM | 8% | O=C(Nc1nc(/C=C/c2ncn(C3CC3)c2Cl)cs1)c1cc(Cl)cn1Cc1ccnc(F)c1 [Compound A12] | 807 | 150 | – | – | – | – | – | –
5 | 24% | 0.445 µM | 63% | 265 nM | 41% | > 25000 nM | 31 nM | > 25000 nM | 137 nM | 42% | O=C(Nc1nc(/C=C/c2ccc(OC3CC3)cc2F)cs1)c1cccn1Cc1ccnc(F)c1 [Compound B6, (E)-N-(4-(4-cyclopropoxy-2-fluorostyryl)thiazol-2-yl)-1-((2-fluoropyridin-4-yl)methyl)-1H-pyrrole-2-carboxamide] | 14 | 9 | – | – | – | – | – | –
6 | <1% | 7.04 µM | 7% | 1650 nM | 1% | 19400 nM | 13 nM | 8750 nM | 816 nM | <1% | O=C(Nc1nc(/C=C/c2ccc(OC(F)F)cn2)cs1)c1cccn1Cc1ccnc(F)c1 [Compound B4, (E)-N-(4-(2-(5-(difluoromethoxy)pyridin-2-yl)vinyl)thiazol-2-yl)-1-((2-fluoropyridin-4-yl)methyl)-1H-pyrrole-2-carboxamide] | 544 | 130 | – | – | – | – | – | –
7 | 11% | 1.01 µM | 49% | 249 nM | 5% | > 25000 nM | 41 nM | 5810 nM | 86 nM | 38% | O=C(Nc1nc(/C=C/[C@H]2CC[C@H](C(F)(F)F)CC2)cs1)c1cccn1Cc1ccncc1 [Compound B10, 1-(pyridin-4-ylmethyl)-N-(4-((E)-2-((1r,4r)-4-(trifluoromethyl)cyclohexyl)vinyl)thiazol-2-yl)-1H-pyrrole-2-carboxamide] | 25 | 6 | – | – | – | – | – | –

Row | Compound | Liver Microsome Stability (Multiple Species): Monkey - % Remaining after 30 min w/ NADPH (%) [1] | IC50 [2, 11] | Liver Microsome Stability (Multiple Species): Mouse - % Remaining after 30 min w/ NADPH (%) [3] | IC50 [4, 13] | Liver Microsome Stability (Multiple Species): Rat - % Remaining after 30 min w/ NADPH (%) [5] | EC50 [6, 15] | IC50 [7, 16] | EC50 [8, 17] | IC50 [9, 18] | Liver Microsome Stability (Multiple Species): Human - % Remaining after 30 min w/ NADPH (%) [10] | 24 hr Dox Inducible TNFaFLGluc 293FRT/TO: TNF/PD1 [2, 12] | 24 hr Dox Inducible IL2FLGluc 293FRT/TO: IL2/PD1 [4, 14] | IC50 ([2]; read-out: 24 hr Dox Inducible TNFaFLGluc 293FRT/TO: Mean IC50; Flp-In 293 T-REx cells, 24 hours with doxycycline; Table 3) | IC50 ([4]; read-out: 24 hr Dox Inducible IL2FLGluc 293FRT/TO: Mean IC50; Flp-In 293 T-REx cells, 24 hours with doxycycline; Table 3) | EC50 ([6]; U-266, 48 h, read-out: 48 hr U266 Viability Celltiter-Glo: Mean EC50 (nM)) | IC50 ([7]; read-out: 24 hr Dox Inducible PD1ssGluc 293FRT/TO: Mean IC50; Flp-In 293 T-REx cells, 24 hours with doxycycline; Table 3) | EC50 ([8]; NCI-H929, 48 h, read-out: 48 hr H929 Viability Celltiter-Glo: Mean EC50 (nM)) | IC50 ([9]; read-out: 24 hr Dox Inducible Her3(ss + 4)Gluc 293FRT/TO: Mean IC50; Flp-In 293 T-REx cells, 24 hours with doxycycline; Table 3)
8 | Cc1sc(NC(=O)c2cccn2Cc2ccnc(F)c2)nc1/C=C/c1cn(C(C)C)cn1 [Compound B23, (E)-1-((2-fluoropyridin-4-yl)methyl)-N-(4-(2-(1-isopropyl-1H-imidazol-4-yl)vinyl)-5-methylthiazol-2-yl)-1H-pyrrole-2-carboxamide] | 1% | – | 16% | – | 19% | – | – | – | – | <1% | >422 | >420 | > 25 µM | > 25000 nM | > 25000 nM | 59 nM | > 25000 nM | 3390 nM
